One assay has as its target PAK1 (Homo sapiens, UniProt Q13153). The assay is described as follows: Competitive binding assay (phage-displayed kinase vs immobilized staurosporine bait), PAK1.
In another assay the target is PAK2 (Homo sapiens, UniProt Q13177). The experiment in a line: Competitive binding assay (phage-displayed kinase vs immobilized staurosporine bait), PAK2.
The target in another assay is PAK4 (Homo sapiens, UniProt O96013). The experiment in a line: Competitive binding assay (phage-displayed kinase vs immobilized staurosporine bait), PAK4. Particulars: PAK Inhibitor Affinity Assay.
PAK4, sequence (O96013 whole entry): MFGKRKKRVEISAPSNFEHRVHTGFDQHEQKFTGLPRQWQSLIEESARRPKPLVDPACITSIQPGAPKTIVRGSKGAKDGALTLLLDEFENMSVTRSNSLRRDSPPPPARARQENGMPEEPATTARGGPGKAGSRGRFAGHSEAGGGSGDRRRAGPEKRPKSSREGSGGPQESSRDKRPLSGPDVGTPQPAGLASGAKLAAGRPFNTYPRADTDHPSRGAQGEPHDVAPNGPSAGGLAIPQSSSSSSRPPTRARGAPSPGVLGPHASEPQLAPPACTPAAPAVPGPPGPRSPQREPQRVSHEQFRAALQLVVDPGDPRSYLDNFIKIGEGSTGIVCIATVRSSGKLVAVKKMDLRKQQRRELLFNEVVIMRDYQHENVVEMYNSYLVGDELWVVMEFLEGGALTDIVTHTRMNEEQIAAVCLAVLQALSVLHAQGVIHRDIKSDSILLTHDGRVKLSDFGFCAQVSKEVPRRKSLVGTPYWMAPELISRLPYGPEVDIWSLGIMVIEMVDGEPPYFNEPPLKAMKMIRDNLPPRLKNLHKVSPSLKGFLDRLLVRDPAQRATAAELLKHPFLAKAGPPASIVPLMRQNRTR
In a further assay the target is PAK6 (Homo sapiens, UniProt Q9NQU5). The experiment in a line: biochemical. It is filed as binding. Particulars: PAK Inhibitor Affinity Assay.
PAK6, sequence (Q9NQU5 whole entry): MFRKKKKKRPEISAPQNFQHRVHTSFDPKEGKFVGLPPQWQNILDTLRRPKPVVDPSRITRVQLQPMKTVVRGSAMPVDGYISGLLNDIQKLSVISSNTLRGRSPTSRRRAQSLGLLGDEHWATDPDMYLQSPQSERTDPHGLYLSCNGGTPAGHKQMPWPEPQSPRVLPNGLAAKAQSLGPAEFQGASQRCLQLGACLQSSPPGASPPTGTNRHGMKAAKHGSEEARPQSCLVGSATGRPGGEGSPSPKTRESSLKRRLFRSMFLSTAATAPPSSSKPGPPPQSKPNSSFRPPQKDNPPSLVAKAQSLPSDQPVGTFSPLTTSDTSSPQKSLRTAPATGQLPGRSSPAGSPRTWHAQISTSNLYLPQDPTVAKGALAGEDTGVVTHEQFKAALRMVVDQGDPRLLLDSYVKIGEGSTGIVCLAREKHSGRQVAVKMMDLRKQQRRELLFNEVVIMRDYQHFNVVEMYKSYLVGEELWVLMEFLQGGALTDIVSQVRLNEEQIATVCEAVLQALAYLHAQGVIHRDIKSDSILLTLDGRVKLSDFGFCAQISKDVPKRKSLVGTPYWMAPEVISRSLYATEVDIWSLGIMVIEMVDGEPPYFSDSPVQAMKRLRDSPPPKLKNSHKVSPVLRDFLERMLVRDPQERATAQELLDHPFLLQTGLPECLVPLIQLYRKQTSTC
For the next assay, the target named is PAK7 (Homo sapiens, UniProt Q9P286). The assay is described as follows: Competitive binding assay (phage-displayed kinase vs immobilized staurosporine bait), PAK7. The conditions noted are these: PAK Inhibitor Affinity Assay.
PAK7, sequence (Q9P286 whole entry): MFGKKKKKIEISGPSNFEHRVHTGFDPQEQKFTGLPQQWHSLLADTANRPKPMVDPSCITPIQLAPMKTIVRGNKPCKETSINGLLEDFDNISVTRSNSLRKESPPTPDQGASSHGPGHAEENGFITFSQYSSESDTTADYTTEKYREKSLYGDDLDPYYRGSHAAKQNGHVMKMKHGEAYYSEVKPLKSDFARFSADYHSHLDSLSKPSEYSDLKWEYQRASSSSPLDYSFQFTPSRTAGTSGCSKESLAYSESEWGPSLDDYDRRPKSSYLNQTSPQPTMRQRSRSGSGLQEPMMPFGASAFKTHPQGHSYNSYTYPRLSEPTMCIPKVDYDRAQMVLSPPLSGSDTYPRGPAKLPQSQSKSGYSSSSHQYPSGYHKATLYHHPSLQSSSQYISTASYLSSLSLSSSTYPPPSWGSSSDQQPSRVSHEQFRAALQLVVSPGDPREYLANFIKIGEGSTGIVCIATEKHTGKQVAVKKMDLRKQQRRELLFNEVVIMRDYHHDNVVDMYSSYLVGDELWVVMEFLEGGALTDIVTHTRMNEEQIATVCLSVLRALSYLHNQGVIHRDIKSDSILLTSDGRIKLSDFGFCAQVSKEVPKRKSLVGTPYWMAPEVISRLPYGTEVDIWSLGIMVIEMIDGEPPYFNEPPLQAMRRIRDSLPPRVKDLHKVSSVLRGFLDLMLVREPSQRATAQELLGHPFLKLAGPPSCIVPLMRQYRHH

This passage reports Kd results from patent publication US20100317715A1, “METHODS FOR TREATING NEUROPSYCHIATRIC CONDITIONS” (priority 2007, published 2010).

Read-outs that look alike come from different tables or passages of the source.

PAK2, sequence (Q13177 whole entry): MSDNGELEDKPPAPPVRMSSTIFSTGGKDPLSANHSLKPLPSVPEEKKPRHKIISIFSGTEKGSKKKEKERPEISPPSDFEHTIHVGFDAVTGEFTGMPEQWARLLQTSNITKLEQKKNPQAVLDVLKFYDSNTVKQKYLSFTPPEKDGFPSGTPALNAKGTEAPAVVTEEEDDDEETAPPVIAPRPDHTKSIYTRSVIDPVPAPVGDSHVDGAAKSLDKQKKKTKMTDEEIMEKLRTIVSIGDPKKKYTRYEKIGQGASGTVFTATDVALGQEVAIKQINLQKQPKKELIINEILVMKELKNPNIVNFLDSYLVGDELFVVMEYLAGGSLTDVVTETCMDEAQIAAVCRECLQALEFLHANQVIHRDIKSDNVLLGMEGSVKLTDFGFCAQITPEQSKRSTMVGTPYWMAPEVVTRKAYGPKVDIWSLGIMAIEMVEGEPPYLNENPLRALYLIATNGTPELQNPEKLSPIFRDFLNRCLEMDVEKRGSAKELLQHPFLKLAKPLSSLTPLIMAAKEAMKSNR
PAK1, sequence (Q13153 whole entry): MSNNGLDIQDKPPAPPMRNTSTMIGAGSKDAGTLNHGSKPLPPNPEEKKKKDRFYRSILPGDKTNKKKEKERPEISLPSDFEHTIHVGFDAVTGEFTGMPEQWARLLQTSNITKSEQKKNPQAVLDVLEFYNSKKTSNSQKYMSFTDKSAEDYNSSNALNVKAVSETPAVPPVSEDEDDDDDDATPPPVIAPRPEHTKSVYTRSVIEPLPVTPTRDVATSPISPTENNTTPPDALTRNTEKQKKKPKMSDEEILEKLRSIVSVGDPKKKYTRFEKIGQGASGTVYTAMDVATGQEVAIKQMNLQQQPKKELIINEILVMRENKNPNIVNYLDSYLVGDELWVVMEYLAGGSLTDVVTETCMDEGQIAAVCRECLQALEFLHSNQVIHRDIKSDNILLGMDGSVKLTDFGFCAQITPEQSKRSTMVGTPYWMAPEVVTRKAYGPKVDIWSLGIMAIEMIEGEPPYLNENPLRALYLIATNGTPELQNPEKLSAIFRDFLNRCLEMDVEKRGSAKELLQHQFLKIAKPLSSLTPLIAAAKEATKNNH

Consider `CCOc1cc2ncc(C#N)c(Nc3ccc(F)c(Cl)c3)c2cc1NC(=O)/C=C/CN(C)C` [EKB-569], for which the dissociation constant (Kd) (in general, a measure of binding affinity in units of concentration) was < 5 µM at PAK1 (PAK Inhibitor Affinity Assay, read-out: Kd PAK1); ≥ 10 µM at PAK2 (PAK Inhibitor Affinity Assay, read-out: Kd PAK2); ≥ 10 µM on PAK4; ≥ 10 µM on PAK6; ≥ 10 µM on PAK7.
With `Nc1nc(Nc2ccc(S(N)(=O)=O)cc2)nn1C(=O)c1c(F)cccc1F` [JNJ-7706621], the figures for the Kd at PAK1, on PAK2 and at PAK6 were ≥ 10 µM, ≥ 10 µM and < 5 µM, respectively.
